# Tested on: GDF8 signaling (p-SMAD-3 (Ser423/425))
# Test: AlphaScreen SureFire SMAD3 (p-Ser423/425) assay, GDF8-stimulated cells (GDF pSMAD)
# Assay type: cell-based
# Details: Mus musculus, MPC-11, MPC11; GDF8-stimulated; p-SMAD3 AlphaScreen; read-out: GDF pSMAD (MPC11) (inhibition of GDF8 signaling)
row,Structure (SMILES),IC50
1,"Cc1cc(-c2ncc(NCc3cccc(N4CCOCC4)c3)cc2-c2ccc3ncsc3c2)ccc1F [compound 354, 5-(Benzo[d]thiazol-6-yl)-6-(4-fluoro-3-methylphenyl)-N-(3-morpholinobenzyl)pyridin-3-amine]",1.27 µM
2,"COc1cc(CNc2cnc(-c3ccc(F)c(C)c3)c(-c3ccc4ncsc4c3)c2)ccc1OCCO [compound 356, 2-(4-(((5-(Benzo[d]thiazol-6-yl)-6-(4-fluoro-3-methylphenyl)pyridin-3-yl)amino)methyl)-2-methoxyphenoxy)ethan-1-ol]",0.965 µM
3,"Cc1cc(-c2ncc(NCc3ccc(CN4CCOCC4)cc3)cc2-c2ccc3ncsc3c2)ccc1F [compound 358, 5-(Benzo[d]thiazol-6-yl)-6-(4-fluoro-3-methylphenyl)-N-(4-(morpholinomethyl)benzyl)pyridin-3-amine]",0.863 µM
4,"Cc1cc(-c2ncc(NCc3ccc(S(N)(=O)=O)cc3)cc2-c2ccc3ncsc3c2)ccc1F [compound 359, 4-(((5-(Benzo[d]thiazol-6-yl)-6-(4-fluoro-3-methylphenyl)pyridin-3-yl)amino)methyl)benzenesulfonamide]",0.524 µM
5,"Cc1cccc(-c2ncccc2-c2ccc3[nH]cnc(=O)c3c2)c1 [compound 361, 6-(2-(m-tolyl)pyridin-3-yl)quinazolin-4(1H)-one]",0.23 µM
6,"O=c1nc[nH]c2ccc(-c3cccnc3-c3cccc(C4CC4)c3)cc12 [compound 362, 6-(2-(3-Cyclopropylphenyl)pyridin-3-yl)quinazolin-4(1H)-one]",0.105 µM
7,"Cc1cc(-c2ncccc2-c2ccc3ncncc3c2)ccc1F [compound 363, 6-(2-(4-Fluoro-3-methylphenyl)pyridin-3-yl)quinazoline]",0.903 µM
8,"Cc1cccc(-c2ncccc2-c2ccc3ncncc3c2)c1 [compound 364, 6-(2-(m-Tolyl)pyridin-3-yl)quinazoline]",0.338 µM
9,"c1cc(-c2ncccc2-c2ccc3ncncc3c2)cc(C2CC2)c1 [compound 365, 6-(2-(3-Cyclopropylphenyl)pyridin-3-yl)quinazoline]",0.165 µM
10,"COc1cc(CNc2cnc(-c3ccc(F)c(C)c3)c(-c3ccc4ncsc4c3)c2)cc(OC)c1O [compound 366, 4-(((5-(Benzo[d]thiazol-6-yl)-6-(4-fluoro-3-methylphenyl)pyridin-3-yl)amino)methyl)-2,6-dimethoxyphenol]",0.226 µM
11,"COc1cc(CNc2cnc(-c3ccc(F)c(C)c3)c(-c3ccc4ncsc4c3)c2)cc(O)c1OC [compound 367, 5-(((5-(Benzo[d]thiazol-6-yl)-6-(4-fluoro-3-methylphenyl)pyridin-3-yl)amino)methyl)-2,3-dimethoxyphenol]",0.28 µM
12,"Cc1cc(-c2ncc(NCc3ccc(O)c(O)c3)cc2-c2ccc3ncsc3c2)ccc1F [compound 368, 4-(((5-(Benzo[d]thiazol-6-yl)-6-(4-fluoro-3-methylphenyl)pyridin-3-yl)amino)methyl)benzene-1,2-diol]",0.189 µM
13,"Cc1cc(-c2ncc(NCc3ccc(O)c(F)c3)cc2-c2ccc3ncsc3c2)ccc1F [compound 369, 4-(((5-(Benzo[d]thiazol-6-yl)-6-(4-fluoro-3-methylphenyl)pyridin-3-yl)amino)methyl)-2-fluorophenol]",0.193 µM
14,"Cc1cc(-c2ncc(NCc3ccc(O)c(C(F)(F)F)c3)cc2-c2ccc3ncsc3c2)ccc1F [compound 370, 4-(((5-(Benzo[d]thiazol-6-yl)-6-(4-fluoro-3-methylphenyl)pyridin-3-yl)amino)methyl)-2-(trifluoromethyl)phenol]",0.411 µM
15,"Cc1cc(-c2ncc(NCc3ccc(O)c(OC(F)(F)F)c3)cc2-c2ccc3ncsc3c2)ccc1F [compound 371, 4-(((5-(Benzo[d]thiazol-6-yl)-6-(4-fluoro-3-methylphenyl)pyridin-3-yl)amino)methyl)-2-(trifluoromethoxy)phenol]",0.737 µM
16,"Cc1cc(CNc2cnc(-c3ccc(F)c(C)c3)c(-c3ccc4ncsc4c3)c2)ccc1O [compound 372, 4-(((5-(Benzo[d]thiazol-6-yl)-6-(4-fluoro-3-methylphenyl)pyridin-3-yl)amino)methyl)-2-methylphenol]",0.339 µM
17,"Cc1cc(-c2ncc(NCc3ccc(N4CCN(C)CC4)cc3)cc2-c2ccc3ncsc3c2)ccc1F [compound 373, 5-(Benzo[d]thiazol-6-yl)-6-(4-fluoro-3-methylphenyl)-N-(4-(4-methylpiperazin-1-yl)benzyl)pyridin-3-amine]",1.2 µM
18,"Cc1cc(-c2ncc(NCc3ccc(N4CCC(O)CC4)cc3)cc2-c2ccc3ncsc3c2)ccc1F [compound 374, 1-(4-(((5-(Benzo[d]thiazol-6-yl)-6-(4-fluoro-3-methylphenyl)pyridin-3-yl)amino)methyl)phenyl)piperidin-4-ol]",0.495 µM
19,"COc1ncnc2ccc(-c3cccnc3-c3ccc(F)c(C)c3)cc12 [compound 375, 6-(2-(4-Fluoro-3-methylphenyl)pyridin-3-yl)-4-methoxyquinazoline]",0.152 µM
20,"COc1ncnc2ccc(-c3cccnc3-c3cccc(C)c3)cc12 [compound 376, 4-Methoxy-6-(2-(m-tolyl)pyridin-3-yl)quinazoline]",0.276 µM
21,"COc1ncnc2ccc(-c3cccnc3-c3cccc(C4CC4)c3)cc12 [compound 377, 6-(2-(3-Cyclopropylphenyl)pyridin-3-yl)-4-methoxyquinazoline]",0.172 µM
22,"Cn1cnc2ccc(-c3cccnc3-c3cccc(O)c3)cc2c1=O [compound 379, 6-(2-(3-Hydroxyphenyl)pyridin-3-yl)-3-methylquinazolin-4(3H)-one]",0.395 µM

row,Structure (SMILES),IC50
1,"CC(=O)Nc1cccc(-c2ncccc2-c2ccc3ncn(C)c(=O)c3c2)c1 [compound 380, N-(3-(3-(3-Methyl-4-oxo-3,4-dihydroquinazolin-6-yl)pyridin-2-yl)phenyl)acetamide]",18.5 µM
2,"Cn1cnc2ccc(-c3cccnc3-c3ccc(F)cc3)cc2c1=O [compound 381, 6-(2-(4-Fluorophenyl)pyridin-3-yl)-3-methylquinazolin-4(3H)-one]",2.61 µM
3,"Cn1cnc2ccc(-c3cccnc3-c3cccc4cccnc34)cc2c1=O [compound 382, 3-Methyl-6-(2-(quinolin-8-yl)pyridin-3-yl)quinazolin-4(3H)-one]",14.8 µM
4,"Cc1cc(-c2ncccc2-c2ccc3nc(N)ncc3c2)ccc1F [compound 383, 6-(2-(4-Fluoro-3-methylphenyl)pyridin-3-yl)quinazolin-2-amine]",16.7 µM
5,"Cc1cccc(-c2ncccc2-c2ccc3nc(N)ncc3c2)c1 [compound 384, 6-(2-(m-Tolyl)pyridin-3-yl)quinazolin-2-amine]",7.79 µM
6,"Cc1cccc(-c2ncccc2-c2ccc3ncnc(N4CCOCC4)c3c2)c1 [compound 386, 4-(6-(2-(m-Tolyl)pyridin-3-yl)quinazolin-4-yl)morpholine]",2 µM
7,"c1cc(-c2ncccc2-c2ccc3ncnc(N4CCOCC4)c3c2)cc(C2CC2)c1 [compound 387, 4-(6-(2-(3-Cyclopropylphenyl)pyridin-3-yl)quinazolin-4-yl)morpholine]",1.28 µM
8,"O=c1nc[nH]c2ccc(-c3cccnc3-c3ccc(F)c(Cl)c3)cc12 [compound 388, 6-(2-(3-Chloro-4-fluorophenyl)pyridin-3-yl)quinazolin-4(1H)-one]",0.547 µM
9,"O=c1nc[nH]c2ccc(-c3cccnc3-c3cccc(Cl)c3)cc12 [compound 389, 6-(2-(3-Chlorophenyl)pyridin-3-yl)quinazolin-4(1H)-one]",0.187 µM
10,"Cn1cnc2ccc(-c3cccnc3-c3ccc(F)c(Cl)c3)cc2c1=O [compound 390, 6-(2-(3-Chloro-4-fluorophenyl)pyridin-3-yl)-3-methylquinazolin-4(3H)-one]",0.516 µM
11,"Cn1cnc2ccc(-c3cccnc3-c3cccc(Cl)c3)cc2c1=O [compound 391, 6-(2-(3-Chlorophenyl)pyridin-3-yl)-3-methylquinazolin-4(3H)-one]",0.228 µM
12,"Cc1cc(-c2ncccc2-c2ccc3ncnc(N)c3c2)ccc1F [compound 392, 6-(2-(4-Fluoro-3-methylphenyl)pyridin-3-yl)quinazolin-4-amine]",0.127 µM
13,"Nc1ncnc2ccc(-c3cccnc3-c3cccc(Cl)c3)cc12 [compound 393, 6-(2-(3-Chlorophenyl)pyridin-3-yl)quinazolin-4-amine]",0.07 µM
14,"Nc1ncnc2ccc(-c3cccnc3-c3ccc(F)c(Cl)c3)cc12 [compound 394, 6-(2-(3-Chloro-4-fluorophenyl)pyridin-3-yl)quinazolin-4-amine]",0.119 µM
15,"COc1ncnc2ccc(-c3cccnc3-c3ccc(F)c(Cl)c3)cc12 [compound 395, 6-(2-(3-Chloro-4-fluorophenyl)pyridin-3-yl)-4-methoxyquinazoline]",0.959 µM
16,"Cc1cc(-c2ncccc2-c2ccc3cnc(N)nc3c2)ccc1F [compound 396, 7-(2-(4-Fluoro-3-methylphenyl)pyridin-3-yl)quinazolin-2-amine]",0.208 µM
17,"CCN(CC)c1ncnc2ccc(-c3cccnc3-c3ccc(F)c(C)c3)cc12 [compound 397, N,N-Diethyl-6-(2-(4-fluoro-3-methylphenyl)pyridin-3-yl)quinazolin-4-amine]",9.41 µM
18,"CCN(CC)c1ncnc2ccc(-c3cccnc3-c3cccc(O)c3)cc12 [compound 399, 3-(3-(4-(Diethylamino)quinazolin-6-yl)pyridin-2-yl)phenol]",4.65 µM
19,"Cc1cc(-c2ncccc2-c2ccc3ncnc(NC(C)C)c3c2)ccc1F [compound 400, 6-(2-(4-Fluoro-3-methylphenyl)pyridin-3-yl)-N-isopropylquinazolin-4-amine]",5.81 µM
20,"CC(C)Nc1ncnc2ccc(-c3cccnc3-c3ccc(F)c(Cl)c3)cc12 [compound 401, 6-(2-(3-Chloro-4-fluorophenyl)pyridin-3-yl)-N-isopropylquinazolin-4-amine]",5.89 µM
21,"CCCCNc1ncnc2ccc(-c3cccnc3-c3ccc(F)c(C)c3)cc12 [compound 403, N-Butyl-6-(2-(4-fluoro-3-methylphenyl)pyridin-3-yl)quinazolin-4-amine]",1.67 µM
22,"Cc1cc(-c2ncccc2-c2ccc3ncnc(NC4CC4)c3c2)ccc1F [compound 404, N-Cyclopropyl-6-(2-(4-fluoro-3-methylphenyl)pyridin-3-yl)quinazolin-4-amine]",1.03 µM
